How the values were obtained:
Assay type in all cases: cell-based, human
U2OS cells = assay: Cell-cycle distribution by flow cytometry
Protocol: (§1) Since p53 plays a central role in activation of the G1 checkpoint, and influences S, G2, and M checkpoints as well (Giaccia and Kastan, Genes & Development 12:2973-2983 (1998); Ko and Prives, supra, 1996), a functional deficiency of ATX might alter the cell-cycle arrest responses to IR and other genotoxic agents. To test this possibility, U2OS cells were pre-treated with S or AS oligonucleotides, exposed to IR, and cell-cycle distributions at 24 h post-irradiation were determined.
The G2 checkpoint inhibitor was added to the culture medium at 8 h prior to harvest for determination of cell-cycle distributions (FIG. 3E, left panel), and immunoblotting for ATX expression (right panel).

hChk2 = assay: IR-dependent phosphorylation of hChk2; conditions: U2OS
Source text: Recent findings point toward ATM as a critical upstream regulator of the activity of the checkpoint kinase, hChk2, in IR-damaged cells (Ahn et al., Cancer Res. 60:5934-5936 (2000); Melchionna et al., Nat. Cell Biol. 2:762-765 (2000)). To determine whether ATX was also involved in hChk2 activation, the effect of AS oligonucleotide treatment on the IR-dependent phosphorylation of hChk2 was examined. […] Moreover, the differential effects of AS treatment on p53 expression versus hChk2 activation argue against the possibility that AS exposure leads to nonspecific inhibition of checkpoint signaling responses to IR-induced DNA damage.

ATX = assay: Protein levels in oligonucleotide-treated cells by immunoblotting; conditions: U2OS
Protocol: (§2) To prepare recombinant HA-tagged ATX and ATM proteins, HEK 293T cells were plated onto 60-mm dishes (9×10^5 cells per dish), and were transfected with 5 μg pcDNA3.1 (empty vector), HA-ATXWT, HA-ATXKI, or HA-ATMWT plasmid DNAS. Transfections were performed with the Fugene 6 transfection reagent (Roche), according to the manufacturer's instructions. For NMD assays (see Example 9, below), U2OS cells were seeded onto 100 mm dishes (1×10^6 cells per dish). After 20 h, cells were transfected with 1.5 μg of pmCMV-Gl test plasmid, either Norm or 39Ter (Ishigaki et al., 2001); 1.5 μg of phCMV-MUP reference plasmid (Ishigaki et al., Cell 106:607-617 (2001)); and 7 μg of empty plasmid (pcDNA 3.1), plasmids encoding HA-ATMWT, HA-ATMKI, HA-ATXWT or HA-ATXKI. […]
as §1, with “determined. […]” for “determined.”

[1] = tested on: NMD of the Ter-containing β-globin mRNA; assay: NMD assay, β-globin Ter mRNA by RT-PCR; conditions: U2OS, reduced endogenous ATX expression
Protocol: as §2, with “HA-ATXKI. For antisense transfection experiments, U2OS cells were seeded onto 60 mm dishes (1×10^5 cells per dish) in complete medium supplemented with penicillin/streptomycin.” for “HA-ATXKI.”
Total or nuclear RNA was isolated using Trizol (Invitrogen) or the NE-PER kit (Pierce), respectively. The extent of NMD was determined by using RT-PCR to quantitate the levels of Globin and MUP mRNA as described previously (Ishigaki et al., Cell 83: 1-4 (2001)), except that 21 cycles of PCR were used when analyzing the effects of ATX-specific S and AS oligonucleotides.

5′-AGCAAGCTCCCTCCTGTCTC-3′ (all phosphorothioate, sugars by position and methylation of C not given here) [AS oligonucleotide, ATX antisense phosphorothioate oligonucleotide complementary to ATX nucleotides 210-229]
cell-cycle distribution after IR exposure (U2OS cells; 24 h post-irradiation): arrested primarily in G2/M phase
subpopulation with <2N DNA content (apoptotic cells) (U2OS cells; no IR): increased subpopulation
cell-cycle distribution in the absence of IR (U2OS cells; no IR, versus S oligonucleotide): reduction in the percentage of G1 phase cells, and a concomitant accumulation of G2/M phase cells
IR-dependent phosphorylation of hChk2 (hChk2): retained the ability to phosphorylate hChk2
expression levels of control proteins ATM and PLC-γ1 (ATX; immunoblot): no significant change
reduction in ATX protein (ATX; over 10 independent trials): 50-90%
NMD activity [1]: ATX expression is required for maximal NMD activity
